Experimental data: PubChem BioAssay (NCI)
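The compound was tested at five concentrations on cells cultured in 96-well plates, with a 48-hour exposure period. TGI: concentration producing complete growth inhibition.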

Tests used:
Test in all cases: NCI tumour cell line growth inhibition, 48 h
[1] = test system: SNB-78 CNS
[2] = test system: ACHN renal
[3] = test system: SF-268 CNS
[4] = test system: SF-295 CNS
[5] = test system: UO-31 renal
[6] = test system: HOP-18 NSCLC
[7] = test system: RXF 393 renal
[8] = test system: XF 498 CNS
[9] = test system: HCC-2998 colon
[10] = test system: UACC-257 melanoma
[11] = test system: KM12 colon
[12] = test system: DMS 114 small cell lung
[13] = test system: NCI-H23 lung
[14] = test system: A549 NSCLC
[15] = test system: COLO 205 colon
[16] = test system: M19-MEL melanoma
[17] = test system: OVCAR-3 ovarian
[18] = test system: NCI-H226 lung
[19] = test system: LXFL 529 NSCLC
[20] = test system: SK-MEL-5 melanoma
[21] = test system: DLD-1 colon
[22] = test system: U251 CNS
[23] = test system: MOLT-4 leukemia
[24] = test system: OVCAR-8 ovarian
[25] = test system: SW-620 colon
[26] = test system: MALME-3M melanoma
[27] = test system: SF-539 CNS
[28] = test system: SN12C renal
[29] = test system: M14 melanoma
[30] = test system: SR leukemia
[31] = test system: EKVX NSCLC
[32] = test system: RPMI-8226 leukemia
[33] = test system: SK-MEL-2 melanoma
[34] = test system: CAKI-1 renal
[35] = test system: HL-60(TB) leukemia
[36] = test system: HT29 colon
[37] = test system: RXF-631 renal
[38] = test system: HCT-15 colon
[39] = test system: SNB-75 CNS
[40] = test system: 786-0 renal
[41] = test system: UACC-62 melanoma
[42] = test system: A498 renal
[43] = test system: CCRF-CEM leukemia
[44] = test system: OVCAR-4 ovarian
[45] = test system: HCT-116 colon
[46] = test system: K-562 leukemia
[47] = test system: HOP-92 NSCLC
[48] = test system: DMS 273 small cell lung
[49] = test system: IGROV1 ovarian
[50] = test system: LOX IMVI melanoma
[51] = test system: TK-10 renal
[52] = test system: KM20L2 colon
[53] = test system: SK-OV-3 ovarian
[54] = test system: SK-MEL-28 melanoma
[55] = test system: OVCAR-5 ovarian
[56] = test system: HOP-62 NSCLC

## O=S(=O)(N/N=C/c1ccc(Cl)cc1Cl)c1ccccc1
[1]
  TGI: > 100 µM
[2]
  TGI: > 100 µM
[3]
  TGI: > 100 µM
[4]
  TGI: > 100 µM
[5]
  TGI: > 100 µM
[6]
  TGI: > 100 µM
[7]
  TGI: > 100 µM
[8]
  TGI: > 100 µM
[9]
  TGI: > 100 µM
[10]
  TGI: > 100 µM
[11]
  TGI: > 100 µM
[12]
  TGI: 89.9 µM
[13]
  TGI: > 100 µM
[14]
  TGI: > 100 µM
[15]
  TGI: > 100 µM
[16]
  TGI: > 100 µM
[17]
  TGI: > 100 µM
[18]
  TGI: > 100 µM
[19]
  TGI: > 100 µM
[20]
  TGI: > 100 µM
[21]
  TGI: > 100 µM
[22]
  TGI: > 100 µM
[23]
  TGI: > 100 µM
[24]
  TGI: > 100 µM
[25]
  TGI: > 100 µM
[26]
  TGI: > 100 µM
[27]
  TGI: > 100 µM
[28]
  TGI: > 100 µM
[29]
  TGI: > 100 µM
[30]
  TGI: > 100 µM
[31]
  TGI: > 100 µM
[32]
  TGI: > 100 µM
[33]
  TGI: > 100 µM
[34]
  TGI: > 100 µM
[35]
  TGI: 56.9 µM
[36]
  TGI: > 100 µM
[37]
  TGI: > 100 µM
[38]
  TGI: > 100 µM
[39]
  TGI: > 100 µM
[40]
  TGI: > 100 µM
[41]
  TGI: > 100 µM
[42]
  TGI: > 100 µM
[43]
  TGI: > 100 µM
[44]
  TGI: > 100 µM
[45]
  TGI: > 100 µM
[46]
  TGI: > 100 µM
[47]
  TGI: 94.9 µM
[48]
  TGI: > 100 µM
[49]
  TGI: > 100 µM
[50]
  TGI: > 100 µM
[51]
  TGI: > 100 µM
[52]
  TGI: > 100 µM
[53]
  TGI: > 100 µM
[54]
  TGI: > 100 µM
[55]
  TGI: > 100 µM
[56]
  TGI: > 100 µM
